The text below walks through data of article PMC11661628, “Cannabis sativa extracts inhibit LDL oxidation and the formation of foam cells in vitro, acting as potential multi-step inhibitors of atherosclerosis development” (PLOS ONE, 2024).

The test system of data set [1] is J774.1 cells. Briefly: Quantitation of oxLDL endocytosis (DiI-oxLDL spectrofluorometry). As to conditions: for effect on oxLDL uptake by the cells (dose-response, Fig 4) / ED50: DiI-oxLDL 10 μg mL^-1, 24 h; for ED50: oxLDL internalization, NE non-effective. Format: cell-based, murine.
A further data set has as its target CB1. As to conditions: cited from earlier work.
The target in another data set is TRPV1. The settings on record: cited from earlier work.
For another data set, the target named is CB2. The settings on record: cited from earlier work.
The target of another data set is GPR55. As to conditions: S2 Table; ref THC [1–5], CBD [3–6], AEA [2,3,5,8,9], AM251 [5,10–16], AM630 [14,15,17,18], ML184 [22–24], CID16020046 [25]; read-out: Ki or IC50, GPR55; cited from earlier work.
The subject of the next data set is human TRPV1. The arrangement: method as in PMID 15615864. The settings on record: cited from earlier work.
The next data set has as its system rat TRPV1. Set-up: method as in PMID 15615864. The settings on record: cited from earlier work.
Data set [2] concerns J774.1 cells. Briefly: Cellular toxicity, MTT reduction. The settings on record: 24 h; for LD50: MTT viability curves. The procedure: Cell viability was determined by the mitochondrial-dependent reduction of 3-[4,5-dimethylthiazole-2-yl]-2,5-diphenyltetrazolium bromide (MTT, Merck KGaA) to formazan. […] A control condition with vehicle alone (0.2% DMSO) was also added to each experiment. The medium was replaced with DMEM containing MTT (0.1 mg mL^-1) and the cells were incubated at 37° C for 4 h. After removing the media, formazan crystals were dissolved in DMSO, and the absorbance was registered using the Varioskan plate reader at 560 nm. […] Therapeutic indexes (TI) were calculated as the ratios between the […].

Another data set has as its system LDL. Set-up: method as in PMID 33123676. The settings on record: already described; cited from earlier work.
[3] abbreviates: Fig 5 A-C, antagonist alone 5 µM, 24 h, replicates n=1-3.

Where “and” joins values, the source holds several entries; their conditions need not be identical. Identical values can stand only once. Like-named read-outs stand apart in the source and are kept apart here. Where only a bound is given, the exact number is not on record here.

Turning to `CCCCC/C=C\C/C=C\C/C=C\C/C=C\CCCC(=O)NCCO` [AEA, N-arachidonoylethanolamine], the “effect on oxLDL uptake by the cells (dose-response, Fig 4)” value (“effect on oxLDL uptake by the cells” below) with J774.1 cells [1] is reported as “unable to prevent the uptake of oxLDL”. Also, the results for the Ki at CB1 and on TRPV1 were 0.031 to 0.252 µM and 0.27 µM, respectively.
Consider `Cc1c(C(=O)NN2CCCCC2)nn(-c2ccc(Cl)cc2Cl)c1-c1ccc(I)cc1` [AM251, 1-(2,4-Dichlorophenyl)-5-(4-iodophenyl)-4-methyl-N-1-piperidinyl-1H-pyrazole-3-carboxamide], for which the inhibition constant Ki on CB2 is 0.124 µM.
In the case of `COc1ccc(C(=O)c2c(C)n(CCN3CCOCC3)c3cc(I)ccc23)cc1` [AM630], the “effect of the antagonist on the inhibition of oxLDL uptake by the extracts” value with J774.1 cells [1] is recorded as “unable to counteract the inhibitory effect”. Besides, the “DiI-oxLDL” value in the data set with J774.1 cells [1] (setting [3]) is 5.170 µg/mL and 6.331 µg/mL and 3.777 µg/mL. Besides, in the data set with J774.1 cells [1] (setting [3]), the “µg DiI-oxLDL/mg protein” value is 10.904 µg DiI-oxLDL/mg protein and 13.538 µg DiI-oxLDL/mg protein and 10.952 µg DiI-oxLDL/mg protein. The figures for the Ki on GPR55 and at CB2 (read-out: Ki CB2) were 1.5 µM and 0.031 µM, respectively.
`CC(C)(C)c1ccc(/C=C/C(=O)Nc2ccc3c(c2)OCCO3)cc1` [AMG9810, 2E-N-(2,3-dihydro-1,4-benzodioxin-6-yl)-3-[4-(1,1-dimethylethyl)phenyl]-2-propenamide]: the “effect of the antagonist on DiI-oxLDL uptake” value in the data set with J774.1 cells [1] is “significant inhibition of DiI-oxLDL uptake”. Besides, the values for the IC50 in the data set with human TRPV1 and in the data set with rat TRPV1 were 0.0245 µM and 0.0856 µM, respectively.
`CC(=O)OCOC(=O)CN(CC(=O)OCOC(C)=O)c1ccccc1OCCOc1ccccc1N(CC(=O)OCOC(C)=O)CC(=O)OCOC(C)=O` [BAPTA-2AM]: in the data set with J774.1 cells [1] (6 h, BAPTA-AM 5–20 μM, EGTA 4 mM (S8 Fig)), the “effect of Ca2+ chelation on DiI-oxLDL internalized” value is on record as “very considerable impact”.
In the case of `C=C(C)[C@@H]1CCC(C)=C[C@H]1c1c(O)cc(CCCCC)cc1O` [CBD, cannabidiol], in the data set with J774.1 cells [1], the “effect on oxLDL uptake by the cells” value is reported as “inhibited oxLDL endocytosis” and the ED50 was determined as 25 ± 5 µM. In the data set with J774.1 cells [2], this molecule yielded an LD50 of 23 ± 1 µM. Besides, in the data set with LDL, the “protection of LDL from oxidation” value is recorded as “lack of protection”. On GPR55, the inhibition constant (Ki) was 0.354 µM.
Consider `C=C(C)[C@@H]1CCC(C)=C[C@H]1c1c(O)cc(CCCCC)c(C(=O)O)c1O` [CBDA, cannabidiolic acid], for which, in the data set with J774.1 cells [1], the “effect on oxLDL uptake by the cells” value is on record as “inhibited oxLDL endocytosis” and the ED50 worked out at 18 ± 3 µM. This molecule also showed an LD50 in the data set on J774.1 cells [2] above 40 µM. For the same molecule, in the data set on J774.1 cells [2] (explored range 3–30 μM), the “effect on cell viability and metabolism (MTT)” value is given as “no effect”. Also, the “protection of LDL from oxidation” value in the data set with LDL is on record as “lack of protection”. Also, at CB1, the Ki was 0.626 µM. The Ki on CB2 is 0.813 µM.
